Measured values from US20240159780A1, “PREDICTION OF AMOUNT OF IN VIVO DOPAMINE ETC., AND APPLICATION THEREOF” (Sumitomo Pharma Co., Ltd., priority 2021, published 2024).
Entries after “also recorded” stand apart in the source; their conditions may differ.

Legend:
[1] = test system: MPTP-induced PD-LID model rhesus monkeys; assay: Number of blinks (eye tracking) after L-DOPA in MPTP-induced PD-LID model rhesus monkeys; format: in vivo, rhesus monkey
[2] = test system: MPTP-induced PD-LID model rhesus monkeys; assay: Dyskinesia score and generalized dyskinesia score in MPTP-induced PD-LID model rhesus monkeys; format: in vivo, rhesus monkey
PD-LID model rats = assay: Striatal dopamine release by microdialysis in PD-LID model rats; format: in vivo, rat; conditions: levodopa i.p.
Experimental: As a representative experimental model for Parkinson's disease, a rat striatal dopaminergic neuron destruction model is known in which 6-hydroxydopamine (hereinafter sometimes referred to as “6-OHDA”) is locally administered to one side of the brain (6-OHDA unilateral treated rat (6-OHDA injured rat)). Male Wistar rats (12 weeks old, Japan SLC, Inc.) were used to prepare model animals. Desipramine hydrochloride (25 mg/kg; Wako Pure Chemical Industries, Ltd.) was intraperitoneally administered, and 30 minutes after the administration, inhalation anesthesia with isoflurane was performed using a general anesthesia machine for experimental animals. Under isoflurane anesthesia, the rat was fixed in a stereotaxic apparatus, the skin of the head was incised with a surgical scalpel to expose the cranial bone, and the coordinate of bregma, which is the starting point (AP: 0, ML: 0, DV: 0), was confirmed, and the coordinate of the right medial forebrain bundle (AP: −4.4 mm, ML: 1.5 mm, DV: 7.8 mm from bregma) was measured. […]
In order to measure striatal dopamine release, guide cannula implantation into the striatum of PD-LID model rats and chromatography were performed by a method described in a reference (Pharmacol Res Perspect. 2015 June; 3(3): e00142.). […] Using an HPLC-ECD system (EiCOM Co., Ltd.), the amount of dopamine in the collected dialysate was measured. […]

[3] = L-DOPA 22 mg/kg with Benserazide, oral

time after administration at which the dyskinesia score increased [2, 3]	time after administration from which the score of generalized dyskinesia declined [2, 3]	time after administration from which the score of generalized dyskinesia increased [2, 3] [min]	time after administration of the peak dyskinesia score [2, 3] [min]	time after administration of the peak score of generalized dyskinesia [2, 3]	decay of the dyskinesia score ([2]; L-DOPA 22 mg/kg with Benserazide, oral, measured for 180 minutes)	SMILES	total number of blinks compared to vehicle ([1]; 30 to 120 minutes after administration (60 to 150 minutes after start of measurement), one individual)	time after administration from which the number of blinks increased ([1]; L-DOPA 22 mg/kg with Benserazide 1/4 weight, oral, blinks tallied every 3 minutes)	time of peak of number of blinks with an intermediate duration (0.16≤T<0.18) ([1]; after oral L-DOPA 22 mg/kg, rapid decrease, then gradual increase)	rapid changes and temporal decreases in the dopamine amount in the synaptic cleft in the striatum (PD-LID model rats)	dyskinesia score ([2]; tandospirone ointment transdermal 19 hours prior to testing, with L-DOPA, vs non-tandospirone administration)
about 20 minutes	around 150 minutes	60	60	around 90 minutes	did not decay until 180 minutes	N[C@@H](Cc1ccc(O)c(O)c1)C(=O)O [L-DOPA, (S)-2-amino-3-(3,4-dihydroxyphenyl) propanoic acid]	tended to increase; also recorded: clear tendency to increase	about 30 minutes	around 30 minutes	–	–
–	–	–	–	–	–	O=C1[C@@H]2[C@H]3CC[C@H](C3)[C@@H]2C(=O)N1CCCCN1CCN(c2ncccn2)CC1 [tandospirone]	–	–	–	suppresses	decrease
